Source: the OPERA property sets (Mansouri et al. 2018)

| SMILES | log10 vapour pressure (mmHg) | ready biodegradability | melting point [°C] | boiling point [°C] | log10 Koa | log10 Henry constant (atm·m³/mol) | log10 Koc (L/kg) |
| --- | --- | --- | --- | --- | --- | --- | --- |
| Nc1nc(N)nc(N)n1 | -9.44 | not readily biodegradable | – | – | – | – | – |
| COC(=O)C1(S(=O)(=O)c2ccccc2)CCCCC1 | – | – | 114 | – | – | – | – |
| CCCCC1C(=O)N(c2ccccc2)N(c2ccccc2)C1=O | – | – | 105 | – | – | – | – |
| CCC#CCCCC | – | – | -104 | 133 | – | – | – |
| N#Cc1ccccc1 | -0.115 | readily biodegradable | -12.7 | 191 | 4.46 | – | – |
| O=C(O)CNC(=S)C(=S)NCC(=O)O | – | – | 220 | – | – | – | – |
| CCCCCCCCCCCl | -2.01 | – | -31.3 | 223 | – | – | – |
| CC1=CC[C@@H]2CC1OC2(C)C | – | – | – | 184 | – | – | – |
| CCOC(=O)C=C(C)C(=O)OCC | – | – | – | 228 | – | – | – |
| CCOP(=S)(OCC)Oc1cc(C)nc(C(C)C)n1 | -4.05 | not readily biodegradable | – | – | – | -6.95 | 2.75 |
| c1ccc2c(c1)CCc1ccccc1N2 | – | – | 106 | – | – | – | – |
| COc1ccc(OC)cc1 | – | readily biodegradable | 59 | 213 | – | – | – |
| CC(C)c1cccc2ccccc12 | -2.22 | – | -16 | 268 | – | – | – |
| CCCN(CCC)c1c([N+](=O)[O-])cc(S(C)(=O)=O)cc1[N+](=O)[O-] | -8.03 | not readily biodegradable | 150 | – | – | – | 2.92 |
| C#CC(=C)C | – | – | -113 | 32 | – | – | – |
| FCC(F)(F)C(F)F | 2.88 | – | -82 | 26 | – | – | – |
| CNP(=O)(OC)Oc1ccc(C(C)(C)C)cc1Cl (stereo not given) | – | – | 60 | – | – | – | – |
| CC1CCS1 (stereo not given) | – | – | – | 107 | – | – | – |
| O=c1ccc2cc3ccoc3c(O)c2o1 | – | – | 252 | – | – | – | – |
| C=C1C(=O)OC2[C@H]1CC[C@H](C)[C@@H]1C=CC(=O)[C@@]21C (stereo not given in full) | – | – | 146 | – | – | – | – |
| Clc1ccc(Oc2ccccc2Cl)cc1Cl | -3.85 | – | – | – | – | – | – |
| Nc1nccnn1 | – | – | 176 | – | – | – | – |
| CN(C)CCN(C)CCN(C)C | – | not readily biodegradable | – | – | – | – | – |
| COc1cc2c(cc1OC)C(=O)NCC2 | – | – | 175 | – | – | – | – |

| SMILES | log10 vapour pressure (mmHg) | ready biodegradability | melting point [°C] | boiling point [°C] | log10 Koa | log10 Henry constant (atm·m³/mol) | log10 Koc (L/kg) |
| --- | --- | --- | --- | --- | --- | --- | --- |
| CCC(C)(C)CCC(C)C | – | – | – | 153 | – | – | – |
| CC(c1ccc(Cl)cc1)c1ccc(Cl)cc1 | – | – | 56 | 320 | – | – | – |
| CCCCCCCCCCl | -0.574 | – | -39.4 | 204 | – | – | – |
| CCCCCCC1CCCCC1 | -0.943 | – | -43 | 224 | – | – | – |
| Cc1cc(N)n(-c2ccccc2)n1 | – | – | 116 | 333 | – | – | – |
| Nc1ccc(Cc2ccc(N)c(Cl)c2Cl)c(Cl)c1Cl | – | not readily biodegradable | – | – | – | – | – |
| OC(c1ccccc1)(C(F)(F)F)C(F)(F)F | – | – | – | 160 | – | – | – |
| FC(F)=C(F)C(F)(F)C(F)(F)C(F)(F)C(F)(F)C(F)(F)F | – | – | – | 81 | – | – | – |
| COc1ccc(-c2ccccc2)cc1 | – | – | 90 | – | – | – | – |
| Cc1ccc(Cl)cc1N | – | – | 26 | 239 | – | – | – |
| BrC(Br)=C(Br)Br | – | – | 56.5 | 226 | – | – | – |
| CC(=O)CC(C)=O | 0.471 | readily biodegradable | -23 | 138 | – | – | – |
| Fc1ccc(F)cc1 | 1.81 | – | -13 | 89 | – | – | – |
| CC(=O)Nc1ccccc1[N+](=O)[O-] | – | – | 94 | – | – | – | – |
| CCOC(=O)C(Cl)(Cl)C(C)=O | – | – | – | 206 | – | – | – |
| CC(S)CS (stereo not given) | – | – | – | 152 | – | – | – |
| O=Cc1cccnc1 | – | – | – | – | – | -6.82 | – |
| CN(C)c1ccc2c(c1)Sc1cc(N(C)C)ccc1N2C(=O)c1ccccc1 | – | – | 195 | – | – | – | – |
| FC(F)(F)C(F)(F)C(F)(F)C(F)(F)C(F)(F)C(F)(F)C(F)(F)C(F)(F)C(F)(F)C(F)(F)I | – | – | 66 | 195 | – | – | – |
| O=C(O)[C@@]1(O)CC(O)[C@H](O)[C@H](O)C1 (stereo not given in full) | – | – | 162 | – | – | – | – |
| CCOC(=O)CC(=O)CCl | – | – | -8 | – | – | – | – |
| CCCCSP(SCCCC)SCCCC | – | – | 100 | – | – | – | – |
| Cc1ccc(O)cc1N | – | – | 158 | – | – | – | – |
| CCNc1nc(NC(C)C)nc(OC)n1 | -5.54 | – | – | – | – | – | 2.64 |

| SMILES | log10 vapour pressure (mmHg) | ready biodegradability | melting point [°C] | boiling point [°C] | log10 Koa | log10 Henry constant (atm·m³/mol) | log10 Koc (L/kg) |
| --- | --- | --- | --- | --- | --- | --- | --- |
| CCNc1ccc2ccccc2c1 | – | – | 236 | 316 | – | – | – |
| COc1c(C)c2c(c(O)c1C/C=C(\C)CCC(=O)O)C(=O)OC2 | – | – | 141 | – | – | – | – |
| Oc1ccc(Cl)c2cccnc12 | – | – | 130 | – | – | – | – |
| COC(=O)c1cc(Cl)ccc1N | – | – | 67 | – | – | – | – |
| CCOc1ccccc1F | – | – | -16.7 | 171 | – | – | – |
| COCC(F)F | 2.48 | – | – | 48.5 | – | – | – |
| COc1ccccc1OC(=O)Oc1ccccc1OC | – | – | 89 | – | – | – | – |
| CCOC(=O)CC(=O)c1ccc([N+](=O)[O-])cc1 | – | – | 72 | – | – | – | – |
| CC(C)CCO | 0.375 | readily biodegradable | – | 131 | 4.52 | -4.85 | – |
| CC(C)C(O)C(C)(C)C (stereo not given) | – | – | -13 | 150 | – | – | – |
| CC1=C(/C=C/C(C)=C/C=C/C(C)=C/CO)C(C)(C)CCC1 | – | – | 63.5 | – | – | – | – |
| CCOC(=O)/C=C(C)/C=C/CC(C)CCCC(C)C (stereo not given) | -3.61 | – | – | – | – | – | – |
| CNC(=O)C(C)SCCSP(=O)(OC)OC (stereo not given) | – | – | 43 | – | – | – | – |
| CCC1CCC(C)CC1 (stereo not given) | – | – | -80.8 | 151 | – | – | – |
| COc1ccc(C(=O)c2csc(S(N)(=O)=O)c2)cc1 | – | – | 174 | – | – | – | – |
| CN(C)CC(O)CN(C)C | – | – | – | 182 | – | – | – |
| C1CCC2(CC1)CCCCC2 | – | – | – | 207 | – | – | – |
| CCCCCCCCCCC#N | – | – | – | 253 | – | – | – |
| CCCc1ccccc1N | – | – | – | 226 | – | – | – |
| c1ccc(-c2ncoc2-c2ccccc2)cc1 | – | – | 44 | – | – | – | – |
| CC(C(=O)O)c1cccc(C(=O)c2ccccc2)c1 (stereo not given) | – | – | 94 | – | – | – | – |
| O=c1c(O)c(O)c(=O)c1=O | – | – | 150 | – | – | – | – |
